Measurements from patent US10624908B2, “Phosphopantetheine compounds alone or in combination with HMG-CoA reductase inhibitors for lowering serum cholesterol and serum triglicerides” (COMET THERAPEUTICS, INC., priority 2014, dated 2020).

How the values were obtained:
[1] = Conversion of CoA into 4′-phosphopantetheine in human serum (HPLC)
Method: Materials and Methods: CoA (purchased from Sigma) was incubated at a final concentration of 10 μM human serum for 6 hours at 37° C. After incubation, the samples were processed to remove proteins and HPLC analysis was used to assess the amount of remaining compound CoA and amount of generated 4′-phosphopantetheine, indicating conversion of CoA to 4′-phosphopantetheine.

[2] = Translocation through cell membranes / uptake by cells; type: cell-based
[3] = system: HEK293 cells; experiment: Rescue potential of CoA and 4′-phosphopantetheine in HOPAN assay; type: cell-based, mammalian; settings: HOPAN 0.5 mM, 250 μM compound, 4 days
Method: Mammalian HEK293 cells treated with the chemical inhibitor HOPAN (hopanthenate, CAS 17097-76-6, IUPAC: calcium 4-[[(2R)-2,4-dihydroxy-3,3-dimethylbutanoyl]amino]butanoate). Cells treated with HOPAN show a reduction in intracellular CoA levels, which induces a decrease in cell viability.
Materials and Methods: HEK293 cells were cultured in vitamin B5 deficient DMEM (Thermo Scientific) supplemented with 10% dialysed FCS (Thermo Scientific) with and without HOPAN (0.5 mM) and CoA and 4′-phosphopantetheine for 4 days. 250 μM of CoA and 4′-phosphopantetheine was used for determination of rescue efficiency.

[4] = 3 h, 10 μM
[5] = patients with moderate dyslipidemia; cited from earlier work
[6] = 400 U Coenzyme A/day for 3 weeks combined with statins, oral; cited from earlier work

SMILES	stability in human serum ([1]; human serum over 6 hours incubation)	concentrations of 4′-phosphopantetheine generated from CoA in human serum ([1]; human serum, 37° C., 6 hours incubation of CoA, HPLC)	translocation through cell membranes / uptake by cells [2]	rescue of HOPAN induced cell count defect ([3]; FIG. 2)	rescue of HOPAN induced cell count defect ([3]; FIG. 2, listed as 4PPT)	rescue of HOPAN induced decrease of intracellular CoA levels ([3]; FIG. 3)	rescue of HOPAN induced decrease of intracellular CoA levels ([3]; FIG. 3, listed as 4PPT)	CoA degraded in human serum [4] [%]	plasma triglyceride levels [5]	toxicity [6]
CC(C)(COP(=O)(O)O)[C@@H](O)C(=O)NCCC(=O)NCCS [4′-phosphopantetheine]	stable	observed to increase	able to effectively translocate through cell membranes	rescued the cell count defect	as potent as CoA	significantly rescued	as potent as CoA	–	–	–
CC(C)(COP(=O)(O)OP(=O)(O)OC[C@H]1O[C@@H](n2cnc3c(N)ncnc32)[C@H](O)[C@@H]1OP(=O)(O)O)[C@@H](O)C(=O)NCCC(=O)NCCS [CoA, Coenzyme A, reference compound]	–	–	cells do not absorb CoA directly	rescued the cell count defect	–	significantly rescued	–	60	effectively reduce plasma triglyceride levels	no toxicity was observed
